# Earlier results in US20060233841A1, “Implantable gel compositions and method of manufacture” (priority 1999, published 2006).
# Conditions: reported value; solubility values considered to be determined at 20° C.
structure (smiles),measurement,value
CC(=O)OCC(COC(C)=O)OC(C)=O [triacetin],solubility in water,7.17 grams in 100 ml of water
